The values below are quoted from earlier work in patent US20050250788A1, “Aqueous outflow enhancement with vasodilated aqueous cavity” (priority 2004, published 2005).

For data set [1] the following is noted: at low concentrations.
Experiment in data set [2]: not given
This is another data set of the same source.

The conditions of data set [3]: chronic, patients with essential hypertension.
The conditions of data set [4]: for area under the plasma concentration time curve / mean peak plasma concentration (C(max)): multiple oral once-daily doses of 200 mg.
Experiment in data set [5]: not given
The source holds these as a separate data set.

Data set [6] has as its system adrenergic (alpha(1), alpha(2) and beta), cholinergic, GABA, dopaminergic, histaminergic, serotonergic (5-HT1A, 5-HT1B, 5-HT2) or benzodiazepine binding sites.
For data set [7], the system named is norepinephrine and dopamine neuronal reuptake.
For data set [8] the following is noted: placebo-controlled, normal volunteers.
The conditions of data set [9]: topical.

Where a name gives a salt, the structure may show the parent alone.

As to `COc1ccccc1OCCNCC(O)c1ccc(C)c(S(N)(=O)=O)c1` (stereo not drawn) [5-[1-hydroxy-2-[2-(2-methoxyphenoxyl)ethylamino]ethyl]-2-methylbenzenesulfonamide], in [1], the “intraocular pressure reducing activity” value is recorded as “excellent intraocular pressure reducing activity”.
In the case of `CC[C@@H]1C(=O)OC[C@@H]1Cc1cncn1C` [Pilocarpine], the “output of clear fluid after administration into a glaucomatous eye” value is recorded as “increase the output of clear fluid”.
`CN[C@H]1CC[C@@H](c2ccc(Cl)c(Cl)c2)c2ccccc21` [Sertraline hydrochloride, (1S-cis)-4-(3,4-dichlorophenyl)-1,2,3,4-tetrahydro-N-methyl-1-nanphthalenamine hydrochloride]: the solubility in ethanol entry in data set [2] (ethanol) was “sparingly soluble”. In [2] (isopropyl alcohol), the “solubility in isopropyl alcohol” value is listed as “slightly soluble”. In data set [2] (water), the “solubility in water” value is “slightly soluble”.
Take `C[C@H](CS)C(=O)N1CCC[C@H]1C(=O)O` [captopril]: the “decrease in mean arterial pressure compared with placebo baseline” value (shortened to “decrease in mean arterial pressure”) in data set [3] is recorded as “equivalent decreases”.
A word on the half-life: it is how long it takes for the measured level to halve. For `N[C@H]1CC[C@@H](c2ccc(Cl)c(Cl)c2)c2ccccc21` [desmethylsertraline], in data set [4] (elderly, following multiple dosing), the “elevation of plasma levels in the elderly” value is on record as 3 fold. Further, in [4] (metabolite, multiple oral once-daily doses of 200 mg sertraline), the half-life was 65 h. In addition, in data set [4], the “area under the plasma concentration time curve” value was 2300 ng·h/mL and the “mean peak plasma concentration (C(max))” value is 140 ng/mL.
`CNC(=O)Oc1ccc2c(c1)[C@]1(C)CCN(C)[C@@H]1N2C` [eserine]: the “output of clear fluid after administration into a glaucomatous eye” value is listed as “increase the output of clear fluid”.
`CC(N/C(=N\C#N)Nc1ccncc1)C(C)(C)C` (stereo not drawn) [pinacidil]: the “decrease in mean arterial pressure” value in [3] is “equivalent decreases”.
In the case of `COc1cc2nc(N3CCN(C(=O)c4ccco4)CC3)nc(N)c2cc1OC` [prazosin], in data set [3], the “decrease in mean arterial pressure” value is listed as “equivalent decreases”.
`CN[C@H]1CC[C@@H](c2ccc(Cl)c(Cl)c2)c2ccccc21` [sertraline]: the dose proportionality result in data set [4] (clinical dose range of 50 to 200 mg/day) is on record as “Linear dose proportionality”. Moreover, in data set [4], the “area under the plasma concentration time curve” value was 2800 ng·h/mL and the “mean peak plasma concentration (C(max))” value is 190 ng/mL. In addition, the “increase of bioavailability by food” value in [4] (oral, with food) is on record as “about 40%”. In [4] (single or multiple oral once-daily doses of 50 to 400 mg/day), the “average terminal elimination half-life” value is on record as “approximately 26 hours”. Further, the plasma protein bound result in data set [5] is given as “Approximately 98%”. Moreover, the “affinity for binding sites” value in data set [6] is recorded as “no significant affinity”. Also, the “effects on norepinephrine and dopamine neuronal reuptake” value in data set [7] is “only very weak effects”. Moreover, in data set [8], the psychomotor performance result was “did not interfere with psychomotor performance” and the sedation result is reported as “did not cause sedation”.
For cyclosporin-A, the “post-surgical increases in intraocular pressure” value in data set [9] is “reduce post-surgical increases in intraocular pressure”.
